From PubChem BioAssay (NCI)
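Values below derive from 48-hour exposures of cells grown in 96-well plates, with endpoints linearly interpolated between the two concentrations bracketing the appropriate inhibition level. GI50 = concentration required for 50% inhibition of growth. TGI: total growth inhibition.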

Assays:
Assay in all cases: DTP human tumour cell line panel, 48 h
A498 renal = system: A498 renal
CAKI-1 renal = system: CAKI-1 renal
CCRF-CEM leukemia = system: CCRF-CEM leukemia
DU-145 prostate = system: DU-145 prostate
HL-60(TB) leukemia = system: HL-60(TB) leukemia
HOP-92 NSCLC = system: HOP-92 NSCLC
KM12 colon = system: KM12 colon
MDA-MB-435 = system: MDA-MB-435
NCI-H226 lung = system: NCI-H226 lung
NCI-H460 lung = system: NCI-H460 lung
OVCAR-3 ovarian = system: OVCAR-3 ovarian
SF-268 CNS = system: SF-268 CNS
SF-539 CNS = system: SF-539 CNS
SK-MEL-2 melanoma = system: SK-MEL-2 melanoma
SK-OV-3 ovarian = system: SK-OV-3 ovarian
SNB-19 CNS = system: SNB-19 CNS
SNB-75 CNS = system: SNB-75 CNS
SW-620 colon = system: SW-620 colon
TK-10 renal = system: TK-10 renal
UACC-257 melanoma = system: UACC-257 melanoma
UO-31 renal = system: UO-31 renal
786-0 renal = system: 786-0 renal
A549 NSCLC = system: A549 NSCLC
ACHN renal = system: ACHN renal
BT-549 breast = system: BT-549 breast
COLO 205 colon = system: COLO 205 colon
EKVX NSCLC = system: EKVX NSCLC
HCC-2998 colon = system: HCC-2998 colon
HCT-116 colon = system: HCT-116 colon
HCT-15 colon = system: HCT-15 colon
HOP-62 NSCLC = system: HOP-62 NSCLC
HS 578T breast = system: HS 578T breast
HT29 colon = system: HT29 colon
IGROV1 ovarian = system: IGROV1 ovarian
K-562 leukemia = system: K-562 leukemia
MALME-3M melanoma = system: MALME-3M melanoma
MDA-MB-231 breast = system: MDA-MB-231 breast
MOLT-4 leukemia = system: MOLT-4 leukemia
NCI-H23 lung = system: NCI-H23 lung
NCI-H522 lung = system: NCI-H522 lung
NCI/ADR-RES ovarian = system: NCI/ADR-RES ovarian
OVCAR-5 ovarian = system: OVCAR-5 ovarian
OVCAR-8 ovarian = system: OVCAR-8 ovarian
RXF 393 renal = system: RXF 393 renal
SK-MEL-28 melanoma = system: SK-MEL-28 melanoma
SK-MEL-5 melanoma = system: SK-MEL-5 melanoma
T-47D breast = system: T-47D breast
M14 melanoma = system: M14 melanoma
OVCAR-4 ovarian = system: OVCAR-4 ovarian
RPMI-8226 leukemia = system: RPMI-8226 leukemia
SF-295 CNS = system: SF-295 CNS

C=C(C)[C@@H]1CC[C@]2(C(=O)NC3CCCCC3)CC[C@]3(C)[C@H](CC[C@@H]4[C@@]5(C)CCCNC(C)(C)[C@@H]5CC[C@]43C)[C@@H]12 showed a GI50 (A498 renal) of 14.3 µM, a TGI (A498 renal) of 28.8 µM and a GI50 (CAKI-1 renal) of 1.56 µM. The TGI (CAKI-1 renal) was 2.93 µM, the GI50 (CCRF-CEM leukemia) was 2.3 µM and the TGI (CCRF-CEM leukemia) was 6.68 µM. It also gave a GI50 (DU-145 prostate) of 1.91 µM, a TGI (DU-145 prostate) of 3.63 µM and a GI50 (HL-60(TB) leukemia) of 2.12 µM. The TGI (HL-60(TB) leukemia) was 4.61 µM, the GI50 (HOP-92 NSCLC) was 1.55 µM and the TGI (HOP-92 NSCLC) was 3.15 µM. It also gave a GI50 (KM12 colon) of 1.92 µM, a TGI (KM12 colon) of 3.64 µM and a GI50 (MDA-MB-435) of 1.7 µM. It also gave a TGI (MDA-MB-435) of 3.15 µM, a GI50 (NCI-H226 lung) of 4.83 µM and a TGI (NCI-H226 lung) of 36.2 µM. It also gave a GI50 (NCI-H460 lung) of 1.78 µM, a TGI (NCI-H460 lung) of 3.3 µM and a GI50 (OVCAR-3 ovarian) of 1.87 µM. It also gave a TGI (OVCAR-3 ovarian) of 3.57 µM, a GI50 (SF-268 CNS) of 5.29 µM and a TGI (SF-268 CNS) of 26 µM. For the same compound, the GI50 (SF-539 CNS) was 1.69 µM, the TGI (SF-539 CNS) was 3.11 µM and the GI50 (SK-MEL-2 melanoma) was 1.91 µM. For the same compound, the TGI (SK-MEL-2 melanoma) was 3.72 µM, the GI50 (SK-OV-3 ovarian) was 1.77 µM and the TGI (SK-OV-3 ovarian) was 3.26 µM. For the same compound, the GI50 (SNB-19 CNS) was 5.51 µM, the TGI (SNB-19 CNS) was 33.3 µM and the GI50 (SNB-75 CNS) was 1.48 µM. It also gave a TGI (SNB-75 CNS) of 3.05 µM, a GI50 (SW-620 colon) of 1.67 µM and a TGI (SW-620 colon) of 3.15 µM. It also gave a GI50 (TK-10 renal) of 1.87 µM, a TGI (TK-10 renal) of 3.6 µM and a GI50 (UACC-257 melanoma) of 1.72 µM. The TGI (UACC-257 melanoma) was 3.31 µM, the GI50 (UO-31 renal) was 1.42 µM and the TGI (UO-31 renal) was 2.73 µM.

CC(C)(C)c1ccc(O)c(C(O)c2ccncc2)c1 (stereo not given) showed a TGI (786-0 renal) of over 100 µM, a TGI (A549 NSCLC) of over 100 µM and a TGI (ACHN renal) of over 100 µM. It also gave a TGI (BT-549 breast) of over 100 µM, a TGI (CAKI-1 renal) of over 100 µM and a TGI (CCRF-CEM leukemia) of over 100 µM. It also gave a TGI (COLO 205 colon) of over 100 µM, a TGI (DU-145 prostate) of over 100 µM and a TGI (EKVX NSCLC) of over 100 µM. It also gave a TGI (HCC-2998 colon) of over 100 µM, a TGI (HCT-116 colon) of over 100 µM and a TGI (HCT-15 colon) of over 100 µM. The TGI (HOP-62 NSCLC) was over 100 µM, the TGI (HS 578T breast) was over 100 µM and the TGI (HT29 colon) was over 100 µM. The TGI (IGROV1 ovarian) was over 100 µM, the TGI (K-562 leukemia) was over 100 µM and the TGI (KM12 colon) was over 100 µM. It also gave a TGI (MALME-3M melanoma) of over 100 µM, a TGI (MDA-MB-231 breast) of over 100 µM and a TGI (MOLT-4 leukemia) of over 100 µM. The TGI (NCI-H226 lung) was over 100 µM, the TGI (NCI-H23 lung) was over 100 µM and the TGI (NCI-H460 lung) was over 100 µM. For the same compound, the TGI (NCI-H522 lung) was over 100 µM, the TGI (NCI/ADR-RES ovarian) was over 100 µM and the TGI (OVCAR-3 ovarian) was over 100 µM. For the same compound, the TGI (OVCAR-5 ovarian) was over 100 µM, the TGI (OVCAR-8 ovarian) was over 100 µM and the TGI (RXF 393 renal) was over 100 µM. For the same compound, the TGI (SF-268 CNS) was over 100 µM, the TGI (SF-539 CNS) was over 100 µM and the TGI (SK-MEL-28 melanoma) was over 100 µM. For the same compound, the TGI (SK-MEL-5 melanoma) was 66.7 µM, the TGI (SNB-75 CNS) was over 100 µM and the TGI (SW-620 colon) was over 100 µM. It also gave a TGI (T-47D breast) of over 100 µM and a TGI (UO-31 renal) of over 100 µM.

Compound Cn1nc(C(=O)N2CC(CCl)c3c2cc(N)c2ccccc32)cc1NC(=O)Nc1cc(C(=O)N2CC(CCl)c3c2cc(N)c2ccccc32)nn1C (stereo not given) has a TGI (A498 renal) of 54.5 µM, a TGI (A549 NSCLC) of over 100 µM and a TGI (ACHN renal) of over 100 µM. For the same compound, the TGI (BT-549 breast) was 0.523 µM, the TGI (CAKI-1 renal) was 6.13 µM and the TGI (EKVX NSCLC) was over 100 µM. It also gave a TGI (HCC-2998 colon) of over 100 µM, a TGI (HCT-15 colon) of over 100 µM and a TGI (HOP-62 NSCLC) of 69.3 µM. The TGI (K-562 leukemia) was over 100 µM, the TGI (KM12 colon) was over 100 µM and the TGI (M14 melanoma) was 5.58 µM. The TGI (NCI-H23 lung) was 0.661 µM, the TGI (NCI-H460 lung) was over 100 µM and the TGI (NCI/ADR-RES ovarian) was over 100 µM. It also gave a TGI (OVCAR-4 ovarian) of over 100 µM, a TGI (OVCAR-5 ovarian) of over 100 µM and a TGI (RPMI-8226 leukemia) of over 100 µM. The TGI (RXF 393 renal) was 0.511 µM, the TGI (SF-295 CNS) was over 100 µM and the TGI (SK-OV-3 ovarian) was over 100 µM. It also gave a TGI (SNB-19 CNS) of 2.32 µM, a TGI (SW-620 colon) of over 100 µM and a TGI (TK-10 renal) of over 100 µM. It also gave a TGI (UO-31 renal) of 65.5 µM.
